The IC50 is the concentration needed to halve the response being measured.

Results on two compounds are retold here after patent publication US8106208B2, “Benzamide compounds that act as NK receptor antagonists” (Albireo AB, priority 2006, dated 2012).

In data set [1] the target is hERG-encoded potassium channel (Homo sapiens, UniProt Q12809). Briefly: Activity against hERG (planar-array-based voltage clamp, Kiss et al.). Format: cell-based. The text has this: The activity of compounds according to formula I against the hERG-encoded potassium channel can be determined according to Kiss L, et al. Assay Drug Dev Technol. 1 (2003), 127-35: “High throughput ion-channel pharmacology: planar-array-based voltage clamp”.
Background: Block of hERG is tested as a sign of cardiac risk.

In data set [2] the target is T1, human NK1 receptor (Homo sapiens, UniProt P25103).
T1 construct: expressed in transfected cells; from AstraZeneca R&D Wilmington
Description: FLIPR assay, inhibition of human NK1 receptor activation (intracellular Ca2+ increase). Type of data set: cell-based. The following applies: CHO cells with human NK1 receptor; agonist Substance P; pKB converted from IC50. The method, then: (§1) Chinese Hamster Ovary (CHO) K1 cells (obtained from ATCC) were stably transfected with the human NK2 receptor (hNK2R cDNA in pRc/CMV, Invitrogen) or the human NK3 receptor (hNK3R in pcDNA 3.1/Hygro (+)/IRES/CD8, Invitrogen vector modified at AstraZeneca EST-Bio UK, Alderley Park). The cells were transfected with the cationic lipid reagent LIPOFECTAMINE™ (Invitrogen) and selection was performed with Geneticin (G418, Invitrogen) at 1 mg/ml for the hNK2R transfected cells and with Hygromycin (Invitrogen) at 500 μg/ml for the hNK3R transfected cells. Single cell clones were collected by aid of Fluorescence Activated Cell Sorter (FACS), tested for functionality in a FLIPR assay (see below), expanded in culture and cryopreserved for future use. CHO cells stably transfected with human NK1 receptors originates from AstraZeneca R&D, Wilmington USA. Human NK1 receptor cDNA (obtained from RNA-PCR from lung tissue) was subcloned into pRcCMV (Invitrogen). Transfection was performed by Calcium Phosphate and selection with 1 mg/ml G418. […]
(§2) The activity of a compound of the invention to inhibit NK1/NK2/NK3 receptor activation measured as NK1/NK2/NK3 receptor mediated increase in intracellular Ca^2+ was assessed by the following procedure: […]

In data set [3] the target is T2, human NK2 receptor (Homo sapiens, UniProt P21452).
T2 construct: expressed in transfected cells
T2 sequence (P21452 1-398): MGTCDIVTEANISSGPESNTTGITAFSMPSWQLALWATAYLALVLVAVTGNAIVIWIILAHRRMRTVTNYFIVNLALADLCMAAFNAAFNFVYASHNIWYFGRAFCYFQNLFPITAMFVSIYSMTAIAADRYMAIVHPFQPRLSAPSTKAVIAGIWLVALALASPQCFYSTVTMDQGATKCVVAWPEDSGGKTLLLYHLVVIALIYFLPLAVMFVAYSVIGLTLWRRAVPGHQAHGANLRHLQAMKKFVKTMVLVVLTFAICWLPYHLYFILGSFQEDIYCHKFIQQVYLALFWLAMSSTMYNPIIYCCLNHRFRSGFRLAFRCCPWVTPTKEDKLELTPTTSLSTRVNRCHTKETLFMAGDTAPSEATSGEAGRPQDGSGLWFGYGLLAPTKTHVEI
Description: FLIPR assay, inhibition of human NK2 receptor activation (intracellular Ca2+ increase). Type of data set: cell-based. The note with it: CHO cells with human NK2 receptor; agonist NKA; pKB converted from IC50. The method, then:
as §1, §2

Data set [4] in a line: Metabolic stability in liver microsomes (intrinsic clearance). Type of data set: in vitro ADME. The following applies: human, pH 7.4, 37° C., read-out: CLint (HLM). The method, then:
The rate of biotransformation can be measured as either metabolite(s) formation or the rate of disappearance of the parent compound. The experimental design involves incubation of low concentrations of substrate (usually 1.0 μM) with liver microsomes (usually 0.5 mg/ml) and taking out aliquots at varying time points (usually 0, 5, 10, 15, 20, 30, 40 min.). The test compound is usually dissolved in DMSO. The DMSO concentration in the incubation mixture is usually 0.1% or less since more solvent can drastically reduce the activities of some CYP450s. Incubations are done in 100 mM potassium phosphate buffer, pH 7.4 and at 37° C. Acetonitrile or methanol is used to stop the reaction. The parent compound is analysed by HPLC-MS. From the calculated half-life, t1/2, the intrinsic clearance, Clint, is estimated by taking microsomal protein concentration and liver weight into account.
A general note: Microsomes from liver hold many membrane-bound enzymes, among them those of drug oxidation.

Data set [5] deals with CYP3A4 (Homo sapiens, UniProt P08684). Briefly: CYP3A4 inhibition (according to Bapiro et al.). Type of data set: in vitro ADME. The method, then:
The IC50 values tested according to Bapiro et al; Drug Metab. Dispos. 29, 30-35 (2001) were generally greater than 10 μM.

Data set [6] addresses T3, human NK3 receptor (Homo sapiens, UniProt P29371).
T3 construct: expressed in transfected cells
T3 sequence (P29371 1-465): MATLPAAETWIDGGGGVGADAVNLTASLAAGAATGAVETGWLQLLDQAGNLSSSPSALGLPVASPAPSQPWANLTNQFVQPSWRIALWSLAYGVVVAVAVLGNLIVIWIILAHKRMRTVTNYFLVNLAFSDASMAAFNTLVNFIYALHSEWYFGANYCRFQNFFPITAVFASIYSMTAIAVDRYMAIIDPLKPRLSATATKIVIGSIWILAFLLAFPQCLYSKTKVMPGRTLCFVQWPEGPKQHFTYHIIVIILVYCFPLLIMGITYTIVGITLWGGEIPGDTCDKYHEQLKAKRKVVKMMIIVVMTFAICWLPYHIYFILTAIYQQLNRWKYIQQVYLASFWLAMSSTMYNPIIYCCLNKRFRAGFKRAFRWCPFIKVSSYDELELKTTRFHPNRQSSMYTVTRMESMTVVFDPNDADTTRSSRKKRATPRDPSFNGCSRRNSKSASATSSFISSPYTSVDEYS
Briefly: FLIPR assay, inhibition of human NK3 receptor activation (intracellular Ca2+ increase). Format: cell-based. The following applies: CHO cells with human NK3 receptor; agonist Pro-7-NKB; pKB converted from IC50. The method, then:
as §1, §2

Data set [7] deals with Human Neurokinin-2 (NK2) Receptor. The note with it: Bioorganic & Medicinal Chemistry Letters (2003), 13, 2211-2215; cited from earlier work.

CYP3A4, sequence (P08684 whole entry): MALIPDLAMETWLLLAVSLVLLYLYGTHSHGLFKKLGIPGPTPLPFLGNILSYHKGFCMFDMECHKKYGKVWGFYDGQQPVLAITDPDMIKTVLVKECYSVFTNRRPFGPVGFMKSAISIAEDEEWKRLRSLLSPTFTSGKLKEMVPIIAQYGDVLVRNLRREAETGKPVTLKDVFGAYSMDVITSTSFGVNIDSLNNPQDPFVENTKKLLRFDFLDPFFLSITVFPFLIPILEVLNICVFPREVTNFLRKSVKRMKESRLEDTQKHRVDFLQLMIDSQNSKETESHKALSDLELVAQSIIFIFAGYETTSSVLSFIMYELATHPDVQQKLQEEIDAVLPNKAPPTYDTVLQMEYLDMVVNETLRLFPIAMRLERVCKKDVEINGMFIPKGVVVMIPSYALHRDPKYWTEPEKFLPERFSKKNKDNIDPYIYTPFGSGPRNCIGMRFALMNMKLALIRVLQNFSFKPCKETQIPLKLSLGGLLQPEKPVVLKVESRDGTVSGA
hERG-encoded potassium channel, sequence (Q12809 whole entry): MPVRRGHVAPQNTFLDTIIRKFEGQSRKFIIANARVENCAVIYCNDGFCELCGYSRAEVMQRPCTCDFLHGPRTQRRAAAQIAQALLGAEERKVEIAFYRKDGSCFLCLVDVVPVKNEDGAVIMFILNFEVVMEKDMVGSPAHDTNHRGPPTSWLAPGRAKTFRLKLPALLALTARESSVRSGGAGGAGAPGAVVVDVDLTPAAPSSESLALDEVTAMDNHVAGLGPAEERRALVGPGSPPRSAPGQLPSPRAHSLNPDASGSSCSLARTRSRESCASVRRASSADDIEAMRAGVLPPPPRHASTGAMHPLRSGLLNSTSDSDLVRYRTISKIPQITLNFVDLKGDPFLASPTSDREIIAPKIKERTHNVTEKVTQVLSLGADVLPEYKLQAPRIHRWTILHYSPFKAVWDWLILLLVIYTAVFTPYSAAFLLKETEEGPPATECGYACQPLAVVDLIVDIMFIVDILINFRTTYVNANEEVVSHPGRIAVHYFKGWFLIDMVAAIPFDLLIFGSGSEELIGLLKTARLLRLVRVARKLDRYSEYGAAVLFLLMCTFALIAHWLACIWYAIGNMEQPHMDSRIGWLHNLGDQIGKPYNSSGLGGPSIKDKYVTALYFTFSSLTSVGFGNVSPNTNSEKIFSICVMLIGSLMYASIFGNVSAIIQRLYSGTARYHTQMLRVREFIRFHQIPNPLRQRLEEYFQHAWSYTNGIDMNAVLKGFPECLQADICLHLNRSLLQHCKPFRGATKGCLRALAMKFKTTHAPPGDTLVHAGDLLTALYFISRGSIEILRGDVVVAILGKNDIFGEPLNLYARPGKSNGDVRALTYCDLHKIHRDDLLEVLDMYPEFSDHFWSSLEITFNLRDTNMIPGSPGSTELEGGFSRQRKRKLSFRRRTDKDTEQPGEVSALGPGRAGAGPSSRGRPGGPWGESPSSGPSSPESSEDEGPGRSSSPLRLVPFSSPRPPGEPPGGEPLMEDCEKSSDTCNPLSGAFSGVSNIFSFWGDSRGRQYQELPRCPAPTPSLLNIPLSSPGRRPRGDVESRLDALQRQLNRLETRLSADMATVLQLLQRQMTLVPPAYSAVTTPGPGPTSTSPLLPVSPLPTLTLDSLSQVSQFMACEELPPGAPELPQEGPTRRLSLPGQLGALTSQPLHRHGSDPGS
T1 sequence (P25103 whole entry): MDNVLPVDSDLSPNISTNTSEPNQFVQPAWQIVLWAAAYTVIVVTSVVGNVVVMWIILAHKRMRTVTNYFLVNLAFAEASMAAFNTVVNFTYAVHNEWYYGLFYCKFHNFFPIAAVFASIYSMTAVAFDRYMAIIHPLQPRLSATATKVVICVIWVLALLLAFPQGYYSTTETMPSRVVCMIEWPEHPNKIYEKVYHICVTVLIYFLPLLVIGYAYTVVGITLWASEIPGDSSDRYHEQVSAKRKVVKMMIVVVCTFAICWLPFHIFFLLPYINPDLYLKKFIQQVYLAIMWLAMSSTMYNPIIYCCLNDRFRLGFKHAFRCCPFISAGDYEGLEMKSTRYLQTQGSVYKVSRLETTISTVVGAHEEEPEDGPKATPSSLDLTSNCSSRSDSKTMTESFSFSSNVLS

In the case of `CN(C[C@@H](CCN1CC(N2CCC(C(=O)N3CCC3)CC2)C1)c1ccc(F)cc1)C(=O)c1cc(Br)cc(C(F)(F)F)c1` [Ex 1, N-[(2S)-4-{3-[4-(Azetidin-1-ylcarbonyl)piperidin-1-yl]azetidin-1-yl}-2-(4-fluorophenyl)butyl]-3-bromo-N-methyl-5-(trifluoromethyl)benzamide], the IC50 in data set [1] is 11000 nM; in data set [5] it was 13500 nM. Also, the Kb is 20 nM in data set [2], 2.51 nM in data set [3] and 3.98 nM in data set [6]. The microsomal CLint at 1 μM in data set [4] is 23 µL/min/mg.
Take `CN(CC(CCN1CC(N2CCOCC2)C1)c1ccc(Cl)c(Cl)c1)C(=O)c1ccccc1` (stereo not shown) [N-[2-(3,4-dichlorophenyl)-4-(3-morpholin-4-ylazetidin-1-yl)butyl]-N-methylbenzamide]: the “functional NK2 receptor antagonistic properties” value in data set [7] is “functional NK2 receptor antagonistic properties”.
